From the supplement of paper PMC10307832

Legend:
Assay in all cases: relative viability (nuclei count vs DMSO), 5 days (fraction); higher = more cells survive
QS11 + Phenformin = compound: C1CC2=C(C1)C=C(C=C2)OC3=NC(=C4C(=N3)N(C=N4)CC5=CC=C(C=C5)C6=CC=CC=C6)N[C@@H](CC7=CC=CC=C7)CO [QS11] + N=C(N)NC(=N)NCCc1ccccc1 [Phenformin] (partner 250 µM)
Summary of the method: (§1)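 The day after seeding in 1536-well plates, lung cancer cell lines were treated by pin tool with a single drug, or with a fixed anchor-drug dose together with five library-drug doses (not always all listed) in √10 steps. After 5 days, a combined fix-and-stain solution (final 0.05% Triton X-100, 1% formaldehyde, 1 ug/ml Hoechst) was added. Nuclei counted on 4× images gave relative viability as treated counts over vehicle counts, reported as the median of duplicate plates.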

QS11 + Decitabine = compound: C1CC2=C(C1)C=C(C=C2)OC3=NC(=C4C(=N3)N(C=N4)CC5=CC=C(C=C5)C6=CC=CC=C6)N[C@@H](CC7=CC=CC=C7)CO [QS11] + Nc1ncn([C@H]2C[C@H](O)[C@@H](CO)O2)c(=O)n1 [Decitabine] (partner 2 µM)
Summary of the method: as §1

AZ628 + Alpelisib = compound: CC1=C(C=C(C=C1)NC(=O)C2=CC(=CC=C2)C(C)(C)C#N)NC3=CC4=C(C=C3)N=CN(C4=O)C [AZ628] + Cc1nc(NC(=O)N2CCC[C@H]2C(N)=O)sc1-c1ccnc(C(C)(C)C(F)(F)F)c1 [Alpelisib] (partner 2 µM)
Summary of the method: as §1

Darinaparsin + Lapatinib = compound: C[As](C)SC[C@H](NC(=O)CC[C@H](N)C(=O)O)C(=O)NCC(=O)O [Darinaparsin] + CS(=O)(=O)CCNCc1ccc(-c2ccc3ncnc(Nc4ccc(OCc5cccc(F)c5)c(Cl)c4)c3c2)o1 [Lapatinib] (partner 2 µM)
Summary of the method: as §1

Cell Line: LK-2
- relative viability (QS11 + Phenformin; first compound 0.08 µM): 0.243
- relative viability (QS11 + Phenformin; first compound 0.253 µM): 0.76
- relative viability (QS11 + Phenformin; first compound 0.8 µM): 0.524
- relative viability (QS11 + Phenformin; first compound 2.53 µM): 0.426
- relative viability (QS11 + Phenformin; first compound 8 µM): 0.411
- relative viability (QS11 + Decitabine; first compound 0.08 µM): 0.246
- relative viability (QS11 + Decitabine; first compound 0.253 µM): 0.332
- relative viability (QS11 + Decitabine; first compound 0.8 µM): 0.37
- relative viability (QS11 + Decitabine; first compound 2.53 µM): 0.288
- relative viability (QS11 + Decitabine; first compound 8 µM): 0.23
- relative viability (AZ628 + Alpelisib; first compound 0.08 µM): 1.23
- relative viability (AZ628 + Alpelisib; first compound 0.253 µM): 1.27
- relative viability (AZ628 + Alpelisib; first compound 0.8 µM): 0.834
- relative viability (AZ628 + Alpelisib; first compound 2.53 µM): 1.08
- relative viability (AZ628 + Alpelisib; first compound 8 µM): 0.296
- relative viability (Darinaparsin + Lapatinib; first compound 0.08 µM): 0.978
- relative viability (Darinaparsin + Lapatinib; first compound 0.8 µM): 0.622
- relative viability (Darinaparsin + Lapatinib; first compound 2.53 µM): 0.926
- relative viability (Darinaparsin + Lapatinib; first compound 8 µM): 1.05

Cell Line: NCI-H2023
- relative viability (QS11 + Phenformin; first compound 0.08 µM): 0.304
- relative viability (QS11 + Phenformin; first compound 0.253 µM): 0.473
- relative viability (QS11 + Phenformin; first compound 0.8 µM): 0.411
- relative viability (QS11 + Phenformin; first compound 2.53 µM): 0.457
- relative viability (QS11 + Phenformin; first compound 8 µM): 0.459
- relative viability (QS11 + Decitabine; first compound 0.08 µM): 0.231
- relative viability (QS11 + Decitabine; first compound 0.253 µM): 0.227
- relative viability (QS11 + Decitabine; first compound 0.8 µM): 0.217
- relative viability (QS11 + Decitabine; first compound 2.53 µM): 0.249
- relative viability (QS11 + Decitabine; first compound 8 µM): 0.224
- relative viability (AZ628 + Alpelisib; first compound 0.08 µM): 0.653
- relative viability (AZ628 + Alpelisib; first compound 0.253 µM): 0.558
- relative viability (AZ628 + Alpelisib; first compound 0.8 µM): 0.617
- relative viability (AZ628 + Alpelisib; first compound 2.53 µM): 0.688
- relative viability (AZ628 + Alpelisib; first compound 8 µM): 0.324
- relative viability (Darinaparsin + Lapatinib; first compound 0.08 µM): 1
- relative viability (Darinaparsin + Lapatinib; first compound 0.8 µM): 0.85
- relative viability (Darinaparsin + Lapatinib; first compound 2.53 µM): 0.63
- relative viability (Darinaparsin + Lapatinib; first compound 8 µM): 1.2

Cell Line: COR-L23
- relative viability (QS11 + Phenformin; first compound 0.08 µM): 0.461
- relative viability (QS11 + Phenformin; first compound 0.253 µM): 0.452
- relative viability (QS11 + Phenformin; first compound 0.8 µM): 0.44
- relative viability (QS11 + Phenformin; first compound 2.53 µM): 0.39
- relative viability (QS11 + Phenformin; first compound 8 µM): 0.366
- relative viability (QS11 + Decitabine; first compound 0.08 µM): 0.44
- relative viability (QS11 + Decitabine; first compound 0.253 µM): 0.433
- relative viability (QS11 + Decitabine; first compound 0.8 µM): 0.443
- relative viability (QS11 + Decitabine; first compound 2.53 µM): 0.357
- relative viability (QS11 + Decitabine; first compound 8 µM): 0.302
- relative viability (AZ628 + Alpelisib; first compound 0.08 µM): 0.864
- relative viability (AZ628 + Alpelisib; first compound 0.253 µM): 0.732
- relative viability (AZ628 + Alpelisib; first compound 0.8 µM): 0.762
- relative viability (AZ628 + Alpelisib; first compound 2.53 µM): 0.808
- relative viability (AZ628 + Alpelisib; first compound 8 µM): 0.334
- relative viability (Darinaparsin + Lapatinib; first compound 0.08 µM): 1.41
- relative viability (Darinaparsin + Lapatinib; first compound 0.8 µM): 0.811
- relative viability (Darinaparsin + Lapatinib; first compound 2.53 µM): 0.716
- relative viability (Darinaparsin + Lapatinib; first compound 8 µM): 1.16

Cell Line: NCI-H1734
- relative viability (QS11 + Phenformin; first compound 0.08 µM): 0.391
- relative viability (QS11 + Phenformin; first compound 0.253 µM): 0.397
- relative viability (QS11 + Phenformin; first compound 0.8 µM): 0.389
- relative viability (QS11 + Phenformin; first compound 2.53 µM): 0.374
- relative viability (QS11 + Phenformin; first compound 8 µM): 0.375
- relative viability (QS11 + Decitabine; first compound 0.08 µM): 0.538
- relative viability (QS11 + Decitabine; first compound 0.253 µM): 0.532
- relative viability (QS11 + Decitabine; first compound 0.8 µM): 0.478
- relative viability (QS11 + Decitabine; first compound 2.53 µM): 0.457
- relative viability (QS11 + Decitabine; first compound 8 µM): 0.51
- relative viability (AZ628 + Alpelisib; first compound 0.08 µM): 0.658
- relative viability (AZ628 + Alpelisib; first compound 0.253 µM): 0.595
- relative viability (AZ628 + Alpelisib; first compound 0.8 µM): 0.571
- relative viability (AZ628 + Alpelisib; first compound 2.53 µM): 0.619
- relative viability (AZ628 + Alpelisib; first compound 8 µM): 0.498
- relative viability (Darinaparsin + Lapatinib; first compound 0.08 µM): 1.87
- relative viability (Darinaparsin + Lapatinib; first compound 0.8 µM): 1.01
- relative viability (Darinaparsin + Lapatinib; first compound 2.53 µM): 0.951
- relative viability (Darinaparsin + Lapatinib; first compound 8 µM): 1.31

Cell Line: NCI-H23
- relative viability (QS11 + Phenformin; first compound 0.08 µM): 0.769
- relative viability (QS11 + Phenformin; first compound 0.253 µM): 0.779
- relative viability (QS11 + Phenformin; first compound 0.8 µM): 0.853
- relative viability (QS11 + Phenformin; first compound 2.53 µM): 0.678
- relative viability (QS11 + Phenformin; first compound 8 µM): 0.877
- relative viability (QS11 + Decitabine; first compound 0.08 µM): 0.282
- relative viability (QS11 + Decitabine; first compound 0.253 µM): 0.305
- relative viability (QS11 + Decitabine; first compound 0.8 µM): 0.311
- relative viability (QS11 + Decitabine; first compound 2.53 µM): 0.292
- relative viability (QS11 + Decitabine; first compound 8 µM): 0.317
- relative viability (AZ628 + Alpelisib; first compound 0.08 µM): 0.745
- relative viability (AZ628 + Alpelisib; first compound 0.253 µM): 0.622
- relative viability (AZ628 + Alpelisib; first compound 0.8 µM): 0.305
- relative viability (AZ628 + Alpelisib; first compound 2.53 µM): 0.501
- relative viability (AZ628 + Alpelisib; first compound 8 µM): 0.377
- relative viability (Darinaparsin + Lapatinib; first compound 0.08 µM): 1.54
- relative viability (Darinaparsin + Lapatinib; first compound 0.8 µM): 0.999
- relative viability (Darinaparsin + Lapatinib; first compound 2.53 µM): 1.22
- relative viability (Darinaparsin + Lapatinib; first compound 8 µM): 1.38

Cell Line: NCI-H647
- relative viability (QS11 + Phenformin; first compound 0.08 µM): 0.372
- relative viability (QS11 + Phenformin; first compound 0.253 µM): 0.57
- relative viability (QS11 + Phenformin; first compound 0.8 µM): 0.514
- relative viability (QS11 + Phenformin; first compound 2.53 µM): 0.478
- relative viability (QS11 + Phenformin; first compound 8 µM): 0.527
- relative viability (QS11 + Decitabine; first compound 0.08 µM): 0.391
- relative viability (QS11 + Decitabine; first compound 0.253 µM): 0.44
- relative viability (QS11 + Decitabine; first compound 0.8 µM): 0.349
- relative viability (QS11 + Decitabine; first compound 2.53 µM): 0.374
- relative viability (QS11 + Decitabine; first compound 8 µM): 0.309
- relative viability (AZ628 + Alpelisib; first compound 0.08 µM): 1.3
- relative viability (AZ628 + Alpelisib; first compound 0.253 µM): 0.952
- relative viability (AZ628 + Alpelisib; first compound 0.8 µM): 0.842
- relative viability (AZ628 + Alpelisib; first compound 2.53 µM): 1.09
- relative viability (AZ628 + Alpelisib; first compound 8 µM): 0.858
- relative viability (Darinaparsin + Lapatinib; first compound 0.08 µM): 1.28
- relative viability (Darinaparsin + Lapatinib; first compound 0.8 µM): 0.926
- relative viability (Darinaparsin + Lapatinib; first compound 2.53 µM): 0.833
- relative viability (Darinaparsin + Lapatinib; first compound 8 µM): 1.42

Cell Line: NCI-H1915
- relative viability (QS11 + Phenformin; first compound 0.08 µM): 0.362
- relative viability (QS11 + Phenformin; first compound 0.253 µM): 0.369
- relative viability (QS11 + Phenformin; first compound 2.53 µM): 0.376
- relative viability (QS11 + Phenformin; first compound 8 µM): 0.348
- relative viability (QS11 + Decitabine; first compound 0.08 µM): 0.248
- relative viability (QS11 + Decitabine; first compound 0.253 µM): 0.266
- relative viability (QS11 + Decitabine; first compound 2.53 µM): 0.267
- relative viability (QS11 + Decitabine; first compound 8 µM): 0.287
- relative viability (AZ628 + Alpelisib; first compound 0.08 µM): 1.09
- relative viability (AZ628 + Alpelisib; first compound 0.253 µM): 1.04
- relative viability (AZ628 + Alpelisib; first compound 0.8 µM): 0.911
- relative viability (AZ628 + Alpelisib; first compound 2.53 µM): 0.708
- relative viability (AZ628 + Alpelisib; first compound 8 µM): 0.564
- relative viability (Darinaparsin + Lapatinib; first compound 0.08 µM): 0.996
- relative viability (Darinaparsin + Lapatinib; first compound 0.8 µM): 0.888
- relative viability (Darinaparsin + Lapatinib; first compound 2.53 µM): 0.932
- relative viability (Darinaparsin + Lapatinib; first compound 8 µM): 1.18

Cell Line: 201T
- relative viability (QS11 + Phenformin; first compound 0.08 µM): 0.468
- relative viability (QS11 + Phenformin; first compound 0.253 µM): 0.399
- relative viability (QS11 + Phenformin; first compound 0.8 µM): 0.4
- relative viability (QS11 + Phenformin; first compound 2.53 µM): 0.414
- relative viability (QS11 + Phenformin; first compound 8 µM): 0.376
- relative viability (QS11 + Decitabine; first compound 0.08 µM): 0.8
- relative viability (QS11 + Decitabine; first compound 0.253 µM): 0.907
- relative viability (QS11 + Decitabine; first compound 0.8 µM): 0.74
- relative viability (QS11 + Decitabine; first compound 2.53 µM): 0.901
- relative viability (QS11 + Decitabine; first compound 8 µM): 0.694
- relative viability (AZ628 + Alpelisib; first compound 0.08 µM): 1.08
- relative viability (AZ628 + Alpelisib; first compound 0.253 µM): 1.03
- relative viability (AZ628 + Alpelisib; first compound 0.8 µM): 1.13
- relative viability (AZ628 + Alpelisib; first compound 2.53 µM): 1.09
- relative viability (AZ628 + Alpelisib; first compound 8 µM): 1.12
- relative viability (Darinaparsin + Lapatinib; first compound 0.08 µM): 1.05
- relative viability (Darinaparsin + Lapatinib; first compound 0.8 µM): 1.03
- relative viability (Darinaparsin + Lapatinib; first compound 2.53 µM): 1.02
- relative viability (Darinaparsin + Lapatinib; first compound 8 µM): 0.76
